Laboratory results as given in the supplement of paper PMC11061612.

How the values were obtained:
Assay in all cases: Bliss excess, mean over the matrix (fraction); higher = more synergy
[1] = system: Hey (Ovarian Carcinoma)
How it was run: (§1)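 Cell lines in DMEM/F12 or RPMI with 10% FBS were plated in 1536-well plates, held 24 hours at 37°C, 5% CO2, then given two-drug dose matrices for 72 hours (DMSO typically 0.2%). Viability was read by CellTiter-Glo 2.0 luminescence and scaled as inhibition from 0 (vehicle wells) to 1 (blank wells). Combination Emax is the second-highest inhibition in the matrix; Bliss excess is observed combination effect minus expected EA + EB − EA·EB, EA and EB being single-agent effects.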

[2] = system: ME-180 (Cervical Carcinoma)
How it was run: as §1

[3] = system: NCI-H522 (Lung Adenocarcinoma)
How it was run: as §1

[4] = system: NCI-H650 (Lung Adenocarcinoma)
How it was run: as §1

SMILES	Bliss excess [1]	Bliss excess [2]	Bliss excess [3]	Bliss excess [4]
CS(=O)(=O)CCNCc1ccc(-c2ccc3ncnc(Nc4ccc(OCc5cccc(F)c5)c(Cl)c4)c3c2)o1 [Lapatinib] + C[C@@H](Oc1cc(-c2cnn(C3CCNCC3)c2)cnc1N)c1c(Cl)ccc(F)c1Cl [Crizotinib] (first compound max 10 µM, 7x7, partner max 10 µM)	-0.0526	-0.0227	-0.0362	-0.0521
Cc1c2c(nn1C)CSCc1cc(n(C)n1)CSc1cc(c3ccccc3c1)OCCCc1c(C(=O)O)n(C)c3c-2c(Cl)ccc13 [AZD5991] + Cc1cc2ncnn2cc1Nc1ncc2c(n1)n(C1CCOCC1)c(=O)n2C [AZD7648] (first compound max 1 µM, 7x7, partner max 10 µM)	-0.015	-0.009	-0.0586	-0.0101
Cc1c2c(nn1C)CSCc1cc(n(C)n1)CSc1cc(c3ccccc3c1)OCCCc1c(C(=O)O)n(C)c3c-2c(Cl)ccc13 [AZD5991] + C[C@@H]1COCCN1C2=NC(=NC(=C2)C3(CC3)[S@](=N)(=O)C)C4=C5C=CNC5=NC=C4 [AZD6738] (first compound max 1 µM, 7x7, partner max 10 µM)	0.012	0.0329	0.0595	0.0217
CN(CCO)CC[C@H](CSc1ccccc1)Nc1ccc(S(=O)(=O)NC(=O)c2ccc(N3CCC([C@@H](O)c4ccccc4-c4ccc(Cl)cc4)CC3)cc2)cc1S(=O)(=O)C(F)(F)F [AZD4320] + C=CCn1c(=O)c2cnc(Nc3ccc(N4CCN(C)CC4)cc3)nc2n1-c1cccc(C(C)(C)O)n1 [AZD1775] (first compound max 1 µM, partner max 1 µM)	-0.053	-0.0304	-0.0299	0.0369
CN(C)CCCOc1ccc(-c2ccc3ncc4c(c3c2)n(C2CCOCC2)c(=O)n4C)cn1 [AZD0156] + C[C@@H]1COCCN1C2=NC(=NC(=C2)C3(CC3)[S@](=N)(=O)C)C4=C5C=CNC5=NC=C4 [AZD6738] (first compound max 1 µM, 7x7, partner max 10 µM)	-0.019	-0.0468	-0.0258	-0.011
COc1nnc2ccc(N3CCC(c4ccc(OCCN5CCN(C)C(=O)[C@H]5C)cc4)CC3)nn12 [AZD5153] + C[C@@H]1COCCN1C2=NC(=NC(=C2)C3(CC3)[S@](=N)(=O)C)C4=C5C=CNC5=NC=C4 [AZD6738] (first compound max 1 µM, 7x7, partner max 10 µM)	-0.0048	-0.0108	-0.0075	0.0125
Cn1cnc2c(F)c(Nc3ccc(Br)cc3Cl)c(C(=O)NOCCO)cc21 [Selumetinib] + C[C@@H]1COCCN1C2=NC(=NC(=C2)C3(CC3)[S@](=N)(=O)C)C4=C5C=CNC5=NC=C4 [AZD6738] (first compound max 10 µM, 7x7, partner max 10 µM)	-0.0014	-0.0115	-0.0653	0.0926
NC1(C(=O)N[C@@H](CCO)c2ccc(Cl)cc2)CCN(c2ncnc3[nH]ccc23)CC1 [Capivasertib] + CCN(CCO)CCCOc1ccc2c(Nc3cc(CC(=O)Nc4cccc(F)c4)[nH]n3)ncnc2c1 [AZD2811] (first compound max 10 µM, 7x7, partner max 1 µM)	0.0375	-0.0096	-0.0817	-0.0281
CC(=O)Nc1cccc(-n2c(=O)n(C3CC3)c(=O)c3c(Nc4ccc(I)cc4F)n(C)c(=O)c(C)c32)c1 [Trametinib] + Cc1nc(-c2cn3c(n2)-c2ccc(-c4cnn(C(C)(C)C(N)=O)c4)cc2OCC3)n(C(C)C)n1 [Taselisib] (first compound max 1 µM, 7x7, partner max 10 µM)	0.0984	0.0713	0.0504	0.136
CC1(C)CCC(CN2CCN(c3ccc(C(=O)NS(=O)(=O)c4ccc(NCC5CCOCC5)c([N+](=O)[O-])c4)c(Oc4cnc5[nH]ccc5c4)c3)CC2)=C(c2ccc(Cl)cc2)C1 [Venetoclax] + CN(C)CCCOc1ccc(-c2ccc3ncc4c(c3c2)n(C2CCOCC2)c(=O)n4C)cn1 [AZD0156] (first compound max 1 µM, 7x7, partner max 1 µM)	-0.0255	0.0092	-0.0134	-0.0194
Cc1c2c(nn1C)CSCc1cc(n(C)n1)CSc1cc(c3ccccc3c1)OCCCc1c(C(=O)O)n(C)c3c-2c(Cl)ccc13 [AZD5991] + C=CCn1c(=O)c2cnc(Nc3ccc(N4CCN(C)CC4)cc3)nc2n1-c1cccc(C(C)(C)O)n1 [AZD1775] (first compound max 1 µM, partner max 1 µM)	-0.0325	-0.0379	-0.0201	0.0397
CCc1c2c(nc3ccc(O)cc13)-c1cc3c(c(=O)n1C2)COC(=O)[C@]3(O)CC [SN-38] + CN(C)CCCOc1ccc(-c2ccc3ncc4c(c3c2)n(C2CCOCC2)c(=O)n4C)cn1 [AZD0156] (first compound max 0.3 µM, 7x7, partner max 1 µM)	0.0372	-0.0259	0.0294	-0.0066
CCN(CCO)CCCOc1ccc2c(Nc3cc(CC(=O)Nc4cccc(F)c4)[nH]n3)ncnc2c1 [AZD2811] + C=CCn1c(=O)c2cnc(Nc3ccc(N4CCN(C)CC4)cc3)nc2n1-c1cccc(C(C)(C)O)n1 [AZD1775] (first compound max 1 µM, partner max 1 µM)	0.0154	-0.0356	0.02	0.0178
CC(=O)c1c(C)c2cnc(Nc3ccc(N4CCNCC4)cn3)nc2n(C2CCCC2)c1=O [Palbociclib] + Cc1c2c(nn1C)CSCc1cc(n(C)n1)CSc1cc(c3ccccc3c1)OCCCc1c(C(=O)O)n(C)c3c-2c(Cl)ccc13 [AZD5991] (first compound max 10 µM, 7x7, partner max 1 µM)	-0.0205	-0.0545	-0.0258	-0.0583
Cc1c2c(nn1C)CSCc1cc(n(C)n1)CSc1cc(c3ccccc3c1)OCCCc1c(C(=O)O)n(C)c3c-2c(Cl)ccc13 [AZD5991] + C1CN(CCC1(C(=O)N[C@@H](CCO)C2=CC=C(C=C2)Cl)N)C3=NC=NC4=C3C=CN4 [Capivasertib] (first compound max 1 µM, 7x7, partner max 3 µM)	-0.0349	-0.028	0.0415	-0.0044
CN(CCO)CC[C@H](CSc1ccccc1)Nc1ccc(S(=O)(=O)NC(=O)c2ccc(N3CCC([C@@H](O)c4ccccc4-c4ccc(Cl)cc4)CC3)cc2)cc1S(=O)(=O)C(F)(F)F [AZD4320] + CN(C)CCCOc1ccc(-c2ccc3ncc4c(c3c2)n(C2CCOCC2)c(=O)n4C)cn1 [AZD0156] (first compound max 1 µM, 7x7, partner max 1 µM)	-0.0272	-0.0339	-0.027	-0.0182
CCN(CCO)CCCOc1ccc2c(Nc3cc(CC(=O)Nc4cccc(F)c4)[nH]n3)ncnc2c1 [AZD2811] + O=C(c1cc(Cc2n[nH]c(=O)c3ccccc23)ccc1F)N1CCN(C(=O)C2CC2)CC1 [Olaparib] (first compound max 1 µM, 7x7, partner max 10 µM)	0.0251	-0.0208	0.0123	-0.003
COc1cccc2c1C(=O)c1c(O)c3c(c(O)c1C2=O)C[C@@](O)(C(=O)CO)C[C@@H]3O[C@H]1C[C@H](N)[C@H](O)[C@H](C)O1 [Doxorubicin] + Cc1cc2ncnn2cc1Nc1ncc2c(n1)n(C1CCOCC1)c(=O)n2C [AZD7648] (first compound max 1 µM, 7x7, partner max 10 µM)	0.13	0.0438	0.0072	0.0195
NC1(C(=O)N[C@@H](CCO)c2ccc(Cl)cc2)CCN(c2ncnc3[nH]ccc23)CC1 [Capivasertib] + COc1nnc2ccc(N3CCC(c4ccc(OCCN5CCN(C)C(=O)[C@H]5C)cc4)CC3)nn12 [AZD5153] (first compound max 10 µM, 7x7, partner max 1 µM)	0.0206	-0.051	-0.0698	-0.0108
NC1(C(=O)N[C@@H](CCO)c2ccc(Cl)cc2)CCN(c2ncnc3[nH]ccc23)CC1 [Capivasertib] + Cn1cnc2c(F)c(Nc3ccc(Br)cc3Cl)c(C(=O)NOCCO)cc21 [Selumetinib] (first compound max 10 µM, 7x7, partner max 10 µM)	-0.0041	-0.0232	-0.0098	-0.0368
